For one data set, the system named is S. aureus. Nature of the data set: pH-dependent MIC determination. The following applies: for MIC: Staphylococcus aureus. The format is cell-based. How it is done:
MICs were determined using a standard serial broth microdilution technique according to the CLSI guidelines. Briefly, bacterial strains were inoculated onto MHBII agar plates and were grown overnight at 37 °C. Next, 3 individual colonies from each strain were inoculated into 1 mL MHBII medium and propagated at 37 °C, 250 rpm overnight. In the cases of Enterococcus and Streptococcus sp., cells were plated to BHI agar plates, and BHI broth was used to determine MICs. […] Following dilutions, each well was seeded with 5×10^4 bacterial cells. All measurements were performed in 3 parallel replicates and to avoid possible edge effects in microwell plates, side rows (A and H) were filled with sterile medium. Following inoculations, plates were covered with lids and wrapped in polyethylene plastic bags to minimize evaporation but allow for O2 transfer. Plates were incubated at 37 °C under continuous shaking at 150 rpm for 18 hours. After incubation, OD600 of each well was measured using a BioTek Synergy 2 microplate reader.

Data set [1] relates to S. aureus clinical isolates. Nature of the data set: microbe, parasite or virus in culture. The following applies: Staphylococcus aureus. The format is cell-based.
The subject of data set [2] is S. aureus ATCC 700699 VISA. The data set is described as follows: Time-dependent killing. Format: cell-based. The following applies: for Time-kill bacterial count: 10xMIC; for Colony numbers: time-kill raw counts, Samples 1-3. How it is done:
Time-dependent killing experiments were performed as previously. S. aureus ATCC 700699 VISA cells were inoculated to MHBII agar plates and grown overnight at 37 °C. Next, 3 independent stationer-phase starter cultures were grown at 37 °C, 250 rpm overnight, in 3 × 1 mL MHBII broth. Next, 100-fold diluted cultures were prepared from each in 20 mL fresh MHBII medium and grown at 37 °C, 250 rpm until early exponential phase (OD600 = 0.3–0.4; i.e., 5 × 10^5 cells/mL). […] Cells were treated with antibiotics in Erlenmeyer flasks at 37 °C, 150 rpm for 48 hours. […] Next, 50 μL from each dilution were plated on MHBII agar plates, and plates were incubated overnight at 37 °C to calculate CFU per mL.

Data set [3] has as its system S. aureus USA300 (MRSA) BAA1556, S. aureus (VRSA) ECL2963646, S. aureus Mu50 (VISA) ATCC 700699. Nature of the data set: S. aureus dermal infection model. Format: in vivo, ICR mice. The following applies: 2% treatment, individual animals. How it is done: The testing strains, S. aureus USA300 (MRSA) BAA1556, S. aureus (VRSA) ECL2963646, and S. aureus Mu50 (VISA) ATCC 700699 were obtained from frozen stocks and thawed at room temperature. Next, an aliquot of 0.2 mL from each stock was transferred to 20 mL BHI broth and incubated at 37 °C with shaking (120 rpm) for 8 hours. Cells in 20 mL culture were pelleted by centrifugation, 3,500g for 15 minutes, and then resuspended in 10 mL cold PBS, then cells were diluted in PBS to obtain the inoculum sizes of 1×10^5 or 1× 10^6 CFU/mL, based on the testing strain’s virulence. In all cases, the actual colony counts were determined by plating dilutions in at least 3 replicates onto MHBII agar plates followed by 24 hours’ incubation and colony counting.
For dermal infections, groups of 5 female ICR mice weighing 24 ± 4 g, provided by BioLasco Taiwan (under a Charles River Laboratories Technology Licensee), were used. Animals were acclimated for 3 days prior to use and were confirmed to be in good health. Prior to infection, animals were anesthetized with etomidate-lipuro emulsion (20 mg /10 mL) at 20 mg/kg by IV injection, and then the fur on the back was removed by an electric shaver, and the epidermal layer was disrupted with an abrasive paper according to the protocol developed by Kugelberg and colleagues. Mice were inoculated topically on the wound area with testing strain suspension, 5 μL/mouse. The target inoculation densities were 1×10^5 or 1× 10^6 CFU/mL, based on the corresponding strain’s virulence. Following infection, animals were housed separately. […] Test articles were administered topically (20 μL/mouse) twice daily. One no-treatment group was euthanized at 1 hour after infection for initial bacterial counts, and the other treatment groups were dosed twice daily with the test compounds and sacrificed either at 25 hours or at 73 hours postinfection. Animals were euthanized with CO2 asphyxiation and the infected skin, a 2 cm^2 area, was excised. The skin samples of the wound infection (around 2 cm^2 areas) were then homogenized in 1 mL PBS (pH 7.4) with a polytron homogenizer. A 0.1 mL aliquot of each homogenate was used for serial 10-fold dilutions and plated onto MHBII agar plates for bacterial enumeration. Statistical significance (P <0.05) was assessed with 1-way ANOVA followed by Dunnett’s method. A significant (P <0.05) decrease in the bacterial counts of the treated animals compared with the vehicle control group was considered significant antimicrobial activity.

The test system of another data set is human red blood cells. Nature of the data set: Haemolysis analysis. As to conditions: human red blood cells, 50 µg/mL, positive control.
Setting [4] is: S. aureus ATCC 43300 (MRSA), pH 5.5.
[5] abbreviates: S. aureus ATCC 43300 (MRSA), pH 7.3.
Setting [6] is: S. aureus ATCC 700699 (VISA), pH 5.5.
The mark [7] stands for this setting: S. aureus ATCC 700699 (VISA), pH 7.3.

≈ marks a conversion by molar mass, not a printed value. Where “and” joins values, the source holds several entries; their conditions need not be identical. Equal values may be shown once.

Method for human red blood cells: Next, 600 μl of this EDTA-treated blood was washed in TBS buffer (10 mM TRIS, 150 mM NaCl [pH 7.2]) and centrifuged at 1,500 g for 1 minute until the supernatant became colorless. The aliquot of the final pellet (200 μL) was diluted to 5 mL with TBS buffer. […] Next, 100 μL of red blood cell suspension was pipetted into sterile Eppendorf tubes together with 100 μL of 2-fold serial dilution of the compounds (final concentration ranged between 100 μg/mL–0.1 μg/mL in a final volume of 200 μL). The plate was incubated for one hour at 37 °C followed by centrifugation at 1,500 g for 1 minute to sediment all red blood cells. Next, all supernatants were subjected to LDH and Haemolysis-Icterus-Lipaemia (HIL) index determination on a Roche Modular P800 analyzer according to the manufacturer’s instructions. After completion of this step the rest of the supernatants were transferred to sterile 96-well plates for the measurement of their optical density at 560-nm wavelength (in a Multiskan FC microplate reader, Thermo Scientific). Melittin (Bachem) at a concentration of 50 μg/mL, and TBS and 10% DMSO/TBS were served as positive (100% hemolysis) and negative (no hemolysis) controls, respectively.

For `Nc1nc(-n2cc(C(=O)O)c(=O)c3cc(F)c(N4CC(O)C4)c(Cl)c32)c(F)cc1F` [Delafloxacin], the MIC in the data set on S. aureus (setting [4]) was 0.0005 mg/L; in the data set on S. aureus (setting [5]), 0.004 mg/L; with S. aureus (setting [6]), 0.032 mg/L; in the data set with S. aureus (setting [7]) it was 1 mg/L.
For the compound `CN[C@H](CC(C)C)C(=O)N[C@H]1C(=O)N[C@@H](CC(N)=O)C(=O)N[C@H]2C(=O)N[C@H]3C(=O)N[C@H](C(=O)N[C@H](C(=O)O)c4cc(O)cc(O)c4-c4cc3ccc4O)[C@H](O)c3ccc(c(Cl)c3)Oc3cc2cc(c3O[C@@H]2O[C@H](CO)[C@@H](O)[C@H](O)[C@H]2O[C@H]2C[C@](C)(N)[C@H](O)[C@H](C)O2)Oc2ccc(cc2Cl)[C@H]1O` [Vancomycin], the MIC in data set [1] (ATCC 29213 / MSSA) was determined as 1 mg/L (≈ 0.69 µM); in data set [1] (MRSA) it was 1 mg/L (≈ 0.69 µM); in data set [1] (MRSA / NRS 3 / VISA), 8 mg/L (≈ 5.52 µM); in data set [1] (MRSA / NRS 4 / VISA), 4 mg/L (≈ 2.76 µM); in data set [1] (MRSA / NRS 18 / VISA) it was 8 mg/L (≈ 5.52 µM); in data set [1] (MRSA / NRS 19 / VISA), 4 mg/L (≈ 2.76 µM). Also, the MIC was determined as 4 mg/L (≈ 2.76 µM) in data set [1] (MRSA / NRS 21 / VISA); 8 mg/L (≈ 5.52 µM) in data set [1] (MRSA / NRS 22 / USA600 / VISA); 4 mg/L (≈ 2.76 µM) in data set [1] (MRSA / NRS 23 / VISA); 8 mg/L (≈ 5.52 µM) in data set [1] (MRSA / NRS 24 / VISA); 2 mg/L (≈ 1.38 µM) in data set [1] (MRSA / NRS 26); 4 mg/L (≈ 2.76 µM) in data set [1] (MRSA / NRS 27 / VISA). The MIC in data set [1] (MRSA / NRS 29 / VISA) is 4 mg/L (≈ 2.76 µM); in data set [1] (MRSA / NRS 37 / VISA), 4 mg/L (≈ 2.76 µM); in data set [1] (MRSA / NRS 54), 2 mg/L (≈ 1.38 µM); in data set [1] (MRSA / NRS 56 / VISA), 4 mg/L (≈ 2.76 µM); in data set [1] (MRSA / USA100 / VRSA), > 64 mg/L; in data set [1] (MRSA / USA800 / VRSA), > 64 mg/L. Besides, the MIC in data set [1] (MSSA) came to 1 mg/L (≈ 0.69 µM); in data set [1] (MSSA / NRS 12 / VISA), 4 mg/L (≈ 2.76 µM); in data set [1] (MSSA / NRS 13 / VISA), 4 mg/L (≈ 2.76 µM); in data set [1] (MSSA / NRS 14 / VISA) it was 4 mg/L (≈ 2.76 µM); in data set [1] (MSSA / NRS 17 / VISA), 8 mg/L (≈ 5.52 µM); in data set [1] (MSSA / NRS 28 / VISA), 4 mg/L (≈ 2.76 µM). For the same compound, the MIC was 2 mg/L (≈ 1.38 µM) in data set [1] (MSSA / NRS 52); > 64 mg/L in data set [1] (MSSA / USA100 / VRSA); 2 mg/L in the data set with S. aureus (setting [4]); 1 mg/L with S. aureus (setting [5]); 8 mg/L in the data set on S. aureus (setting [6]); 8 mg/L with S. aureus (setting [7]). Besides, the “potency on shift from pH 7.3 to 5.5” value in the data set with S. aureus (S. aureus, in words) was “unaffected”. Moreover, the Time-kill bacterial count in data set [2] (time 0 hour) was 2.80E+05; in data set [2] (time 3 hour) it was 8.40E+04; in data set [2] (time 6 hour) it was 3.30E+04; in data set [2] (time 12 hour), 1.30E+03; in data set [2] (time 18 hour) it was 3.80E+03; in data set [2] (time 24 hour) it was 1.60E+02. In addition, the Time-kill bacterial count in data set [2] (time 48 hour) came to 5.30E+01. Besides, the Colony numbers in data set [2] (time 0 h, Dilution 100) was 145 and 132 and 137; in data set [2] (time 3 h, Dilution 100), 48 and 36 and 42; in data set [2] (time 6 h, Dilution 100), 20 and 13 and 16; in data set [2] (time 12 h, Dilution 10), 8 and 7 and 4; in data set [2] (time 18 h, Dilution 1), 231 and 176 and 163; in data set [2] (time 24 h, Dilution 0.5) it was 17 and 12 and 18.
In the case of `CC(=O)O[C@H]1C[C@@]2(C)[C@@H](C[C@@H](O)[C@H]3[C@@]4(C)CC[C@@H](O)[C@@H](C)[C@@H]4CC[C@@]32C)/C1=C(\CCC=C(C)C)C(=O)O` [fusidic acid], the Time-kill bacterial count in data set [2] (time 0 hour) is given as 2.80E+05; in data set [2] (time 3 hour), 7.80E+04; in data set [2] (time 6 hour), 5.60E+04; in data set [2] (time 12 hour) it was 1.40E+04; in data set [2] (time 18 hour) it was 3.40E+03; in data set [2] (time 24 hour), 1.40E+03. The compound also yielded a Time-kill bacterial count in data set [2] (time 48 hour) of 1.70E+04. Moreover, the Colony numbers in data set [2] (time 0 h, Dilution 100) was 145 and 132 and 137; in data set [2] (time 3 h, Dilution 100) it was 47 and 39 and 31; in data set [2] (time 6 h, Dilution 100), 31 and 21 and 32; in data set [2] (time 12 h, Dilution 10), 81 and 58 and 73; in data set [2] (time 18 h, Dilution 1) it was 223 and 160 and 130; in data set [2] (time 24 h, Dilution 0.5), 163 and 86 and 158. Further, the “regrowth of S. aureus populations” value in data set [2] (within 48 hours, 10× MIC, in words) is listed as “regrowth was observable”. In addition, the “Log CFU/Skin” value in data set [3] (Staphylococcus aureus USA300 (MRSA)) is 4.49 Log CFU/Skin and 5.07 Log CFU/Skin and 4.98 Log CFU/Skin and 4.68 Log CFU/Skin and 3.36 Log CFU/Skin.
On to `C/C(=C\C(=O)OCCCCCCCCC(=O)O)C[C@@H]1OC[C@H](C[C@@H]2O[C@H]2[C@@H](C)[C@H](C)O)[C@@H](O)[C@H]1O` [mupirocin, reference compound], for which the “Log CFU/Skin” value in data set [3] (Staphylococcus aureus ECL 2963646 (VRSA)) is 5.07 Log CFU/Skin and 5.72 Log CFU/Skin and 5.58 Log CFU/Skin and 5.64 Log CFU/Skin and 4.16 Log CFU/Skin; in data set [3] (Staphylococcus aureus Mu50 ATCC 700699 (VISA)), 3.89 Log CFU/Skin and 4.45 Log CFU/Skin and 5.25 Log CFU/Skin and 3.85 Log CFU/Skin and 4.43 Log CFU/Skin.
Consider Melittin [reference compound], for which, in the data set with human red blood cells, the “Hemolytic Index” value was found to be 248 and the LDH activity is on record as 525 Unit/mL.

The values above are taken from paper PMC7561186, “Rational design of balanced dual-targeting antibiotics with limited resistance” (PLoS Biology, 2020).
